Assay results from PubChem BioAssay AID2425 (Vanderbilt High Throughput Screening Facility, 2010).
The source made the active and inactive calls.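 Rule for the calls: active = fitted dose-response curve with goodness of fit R² above 0.5; inactive = the rest.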

Target: Muscarinic acetylcholine receptor M1 (Rattus norvegicus) (UniProt P08482)
Test: concentration-dependent potentiation of ACh at M1 – cell-based, calcium mobilization, CHO-K1, ACh EC20, dose response (AID 2425)
Conditions: CHO-K1 rat M1, Fluo-4 calcium, PAM with ACh EC20

Muscarinic acetylcholine receptor M1 (Rattus norvegicus), sequence (P08482 whole entry, looked up): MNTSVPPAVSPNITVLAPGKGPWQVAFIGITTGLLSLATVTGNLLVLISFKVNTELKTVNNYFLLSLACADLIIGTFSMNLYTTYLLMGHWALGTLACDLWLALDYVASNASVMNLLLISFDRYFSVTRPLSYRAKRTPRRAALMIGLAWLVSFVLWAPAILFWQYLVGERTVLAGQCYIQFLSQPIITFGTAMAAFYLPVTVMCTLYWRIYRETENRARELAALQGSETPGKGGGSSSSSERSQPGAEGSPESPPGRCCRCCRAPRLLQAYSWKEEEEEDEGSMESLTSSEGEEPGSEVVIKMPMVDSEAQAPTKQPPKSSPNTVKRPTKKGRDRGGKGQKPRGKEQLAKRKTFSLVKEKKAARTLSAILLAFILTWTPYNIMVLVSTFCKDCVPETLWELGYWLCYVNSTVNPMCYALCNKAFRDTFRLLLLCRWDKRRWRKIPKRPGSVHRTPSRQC

EC50	potentiation, % max ACh (at 30 µM (top of the series))	Compound
5.86 µM	–	Cc1cc(NC(=O)CS(=O)(=O)c2cn(Cc3cccc(Cl)c3)c3ccccc23)no1
–	inactive	O=C1C(=O)N(Cc2ccc(Oc3ccccc3)cc2)c2ccc(OC(F)(F)F)cc21
